Source: ChEMBL document CHEMBL4304831, “Chalcone-Thiazole Hybrids: Rational Design, Synthesis, and Lead Identification against 5-Lipoxygenase” (ACS Med Chem Lett, 2019)
Each block holds one molecule with its values, some of them ahead of it.

Tests used:
[1] = target: T1, Polyunsaturated fatty acid 5-lipoxygenase (Homo sapiens) (UniProt P09917); test: Inhibition of human recombinant 5-LOX expressed in Escherichia coli BL21 assessed as conversion of arachidonic acid to 5-HPETE at 10 uM using arachidonic acid as substrate in presence of ATP by UV-vis spectrophotometry analysis relative to control
T1 sequence (whole entry): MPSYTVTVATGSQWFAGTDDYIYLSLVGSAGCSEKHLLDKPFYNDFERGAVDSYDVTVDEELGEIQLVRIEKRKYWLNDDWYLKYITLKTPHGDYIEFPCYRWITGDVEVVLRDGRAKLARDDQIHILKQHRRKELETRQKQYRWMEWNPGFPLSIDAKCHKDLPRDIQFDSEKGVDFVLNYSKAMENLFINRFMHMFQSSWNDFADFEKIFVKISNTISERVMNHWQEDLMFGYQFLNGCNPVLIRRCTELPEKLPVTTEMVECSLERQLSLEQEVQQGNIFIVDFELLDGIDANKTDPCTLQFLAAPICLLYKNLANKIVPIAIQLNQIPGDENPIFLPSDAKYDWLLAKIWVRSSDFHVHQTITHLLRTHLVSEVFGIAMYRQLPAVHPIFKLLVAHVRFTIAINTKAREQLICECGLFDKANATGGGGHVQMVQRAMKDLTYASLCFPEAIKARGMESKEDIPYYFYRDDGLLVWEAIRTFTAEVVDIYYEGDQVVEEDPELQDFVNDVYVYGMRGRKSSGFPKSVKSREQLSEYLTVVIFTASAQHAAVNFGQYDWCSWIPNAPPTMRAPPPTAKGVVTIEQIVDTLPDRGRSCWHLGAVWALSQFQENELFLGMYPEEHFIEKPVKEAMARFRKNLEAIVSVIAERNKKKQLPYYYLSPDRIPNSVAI

[2] = Antioxidant activity assessed as DPPH radical scavenging activity at 10 uM after 30 mins under dark condition relative to control; type: functional
[3] = target: T1, Polyunsaturated fatty acid 5-lipoxygenase (Homo sapiens); test: Inhibition of human recombinant 5-LOX pseudoperoxidase activity expressed in Escherichia coli BL21 assessed as compound redox activity by measuring change in absorption at 10 uM using 13(S)-HpODE as substrate in presence of ATP by UV-vis spectrophotometric method relative to control; design: scale not given: the % may be the effect or the level left
[4] = target: T2, Polyunsaturated fatty acid 5-lipoxygenase (Homo sapiens, UniProt P09917); test: Inhibition of human recombinant 5-LOX expressed in Escherichia coli BL21 assessed as conversion of arachidonic acid to 5-HPETE using arachidonic acid as substrate in presence of ATP by UV-vis spectrophotometry analysis
T2 sequence (P09917 whole entry): T1 sequence (whole entry)

[5] = compound: COc1ccc(C(=O)Nc2nc(C)c(C(=O)/C=C/c3ccc(C)cc3)s2)cc1; test: (§1) Competitive inhibition of human recombinant 5-LOX expressed in Escherichia coli BL21 assessed as Vmax for substrate at 5 uM using varying levels arachidonic acid as substrate by Lineweaver-Burk plot analysis (reference value: 0.33 to 0.45 +/- 0.01 nmol/min)
[6] = compound: Cc1nc(NC(=O)c2ccccc2)sc1C(=O)/C=C/c1cc2c(cc1Br)OCO2; test: as §1
[7] = compound: COc1ccc(C(=O)Nc2nc(C)c(C(=O)/C=C/c3ccc(C)cc3)s2)cc1; test: (§2) Competitive inhibition of human recombinant 5-LOX expressed in Escherichia coli BL21 assessed as increase in Km for substrate at 5 uM using varying levels arachidonic acid as substrate by Lineweaver-Burk plot analysis (reference value: 0.31 to 0.35 +/- 0.08 to 0.10 uM)
[8] = compound: Cc1nc(NC(=O)c2ccccc2)sc1C(=O)/C=C/c1cc2c(cc1Br)OCO2; test: as §2
[9] = compound: COc1cc(/C=C/C(=O)c2sc(NC(=O)c3ccccc3)nc2C)cc(OC)c1OC; test: Noncompetitive inhibition of human recombinant 5-LOX expressed in Escherichia coli BL21 assessed as Km for substrate at 5 uM using varying levels arachidonic acid as substrate by Lineweaver-Burk plot analysis (reference value: 1.9 +/- 0.4 uM)
[10] = compound: COc1cc(/C=C/C(=O)c2sc(NC(=O)c3ccccc3)nc2C)cc(OC)c1OC; test: Noncompetitive inhibition of human recombinant 5-LOX expressed in Escherichia coli BL21 assessed as decrease in Vmax for substrate at 5 uM using varying levels arachidonic acid as substrate by Lineweaver-Burk plot analysis (reference value: 0.38 +/- 0.02 nmol/min)
[11] = compound: COc1cc(/C=C/C(=O)c2sc(NC(=O)c3ccccc3)nc2C)cc(OC)c1OC; test: Noncompetitive inhibition of human recombinant 5-LOX expressed in Escherichia coli BL21 assessed as decrease in Vmax for substrate at 2 uM using varying levels arachidonic acid as substrate by Lineweaver-Burk plot analysis (reference value: 0.38 +/- 0.02 nmol/min)
[12] = compound: COc1ccc(C(=O)Nc2nc(C)c(C(=O)/C=C/c3ccc(C)cc3)s2)cc1; test: (§3) Competitive inhibition of human recombinant 5-LOX expressed in Escherichia coli BL21 assessed as increase in Km for substrate at 2 uM using varying levels arachidonic acid as substrate by Lineweaver-Burk plot analysis (reference value: 0.31 to 0.35 +/- 0.08 to 0.10 uM)
[13] = compound: Cc1nc(NC(=O)c2ccccc2)sc1C(=O)/C=C/c1cc2c(cc1Br)OCO2; test: as §3
[14] = compound: COc1cc(/C=C/C(=O)c2sc(NC(=O)c3ccccc3)nc2C)cc(OC)c1OC; test: Noncompetitive inhibition of human recombinant 5-LOX expressed in Escherichia coli BL21 assessed as Km for substrate at 2 uM using varying levels arachidonic acid as substrate by Lineweaver-Burk plot analysis (reference value: 1.9 +/- 0.4 uM)
[15] = compound: COc1ccc(C(=O)Nc2nc(C)c(C(=O)/C=C/c3ccc(C)cc3)s2)cc1; test: (§4) Competitive inhibition of human recombinant 5-LOX expressed in Escherichia coli BL21 assessed as Vmax for substrate at 2 uM using varying levels arachidonic acid as substrate by Lineweaver-Burk plot analysis (reference value: 0.33 to 0.45 +/- 0.01 nmol/min)
[16] = compound: Cc1nc(NC(=O)c2ccccc2)sc1C(=O)/C=C/c1cc2c(cc1Br)OCO2; test: as §4

Molecule: Cc1nc(NC(=O)c2ccc(F)cc2)sc1C(=O)/C=C/c1cc2c(cc1Br)OCO2
inhibition [1]: 50.6% | Activity [2]: 5.1%

Molecule: Cc1nc(NC(=O)c2ccccc2)sc1C(=O)/C=C/c1cc2c(cc1Br)OCO2
inhibition [1]: 100% | Activity [3]: 1.2% | Activity [2]: 5.4% | IC50 [4]: 120 nM

Molecule: Cc1nc(NC(=O)c2ccc(F)cc2)sc1C(=O)/C=C/c1cccs1
inhibition [1]: 81.7% | Activity [2]: 0%

Molecule: COc1ccc(C(=O)Nc2nc(C)c(C(=O)/C=C/c3ccc(F)cc3)s2)cc1
inhibition [1]: 88.2% | Activity [3]: 0.3% | Activity [2]: 2.1% | IC50 [4]: 560 nM

Molecule: Cc1nc(NC(=O)c2ccccc2)sc1C(=O)/C=C/c1ccccc1
inhibition [1]: 73.5% | Activity [2]: 2.5%

Molecule: O=C1O[C@H]([C@@H](O)CO)C(O)=C1O
Activity [2]: 60.5%

Molecule: COc1cc(/C=C/C(=O)c2sc(NC(=O)c3ccccc3)nc2C)cc(OC)c1OC
inhibition [1]: 100% | Activity [3]: -56.6% | Activity [2]: 5.7% | IC50 [4]: 70 nM

Molecule: Cc1nc(NC(=O)c2ccc(F)cc2)sc1C(=O)/C=C/c1ccc(N(C)C)cc1
inhibition [1]: 70.2% | Activity [2]: 3.9%

Molecule: CC(c1cc2ccccc2s1)N(O)C(N)=O (centres undefined)
Activity [2]: 10.3%

Molecule: Cc1nc(NC(=O)c2ccccc2)sc1C(=O)/C=C/c1ccc(Cl)cc1
inhibition [1]: 63.7% | Activity [2]: 8.8%

B1: Polyunsaturated fatty acid 5-lipoxygenase (Homo sapiens), P09917 (protein)
chain: T1 sequence (whole entry)
Vmax [5]: 0.31 nmol/min | Vmax [6]: 0.42 nmol/min | Km [7]: 0.53 µM | Km [8]: 2.91 µM | Km [9]: 2.1 µM | Vmax [10]: 0.25 nmol/min | Vmax [11]: 0.29 nmol/min | Km [12]: 0.43 µM | Km [13]: 1.41 µM | Km [14]: 1.8 µM | Vmax [15]: 0.32 nmol/min | Vmax [16]: 0.43 nmol/min

More lines, main results first:

inhibition [1]: 75.1%
Molecule: Cc1ccc(/C=C/C(=O)c2sc(NC(=O)c3ccccc3)nc2C)cc1
Activity [2]: 3%

inhibition [1]: 88.2% | Activity [3]: -12.2% | IC50 [4]: 640 nM
Molecule: Cc1nc(NC(=O)c2ccccc2)sc1C(=O)/C=C/c1ccc(N(C)C)cc1
Activity [2]: 0%

inhibition [1]: 57.2%
Molecule: Cc1nc(NC(=O)c2ccccc2)sc1C(=O)/C=C/c1ccco1
Activity [2]: 3.4%

inhibition [1]: 98% | Activity [3]: -40.2% | IC50 [4]: 240 nM
Molecule: Cc1nc(NC(=O)c2ccccc2)sc1C(=O)/C=C/c1cccc([N+](=O)[O-])c1
Activity [2]: 8.7%

inhibition [1]: 91.5% | Activity [3]: -56.3% | IC50 [4]: 540 nM
Molecule: Cc1ccc(/C=C/C(=O)c2sc(NC(=O)c3ccc(F)cc3)nc2C)cc1
Activity [2]: 15%

inhibition [1]: 98% | Activity [3]: -12.5% | IC50 [4]: 140 nM
Molecule: Cc1nc(NC(=O)c2ccccc2)sc1C(=O)/C=C/c1ccc(F)cc1
Activity [2]: 3%

inhibition [1]: 100% | Activity [3]: 5.6% | IC50 [4]: 80 nM
Molecule: COc1ccc(C(=O)Nc2nc(C)c(C(=O)/C=C/c3ccc(C)cc3)s2)cc1
Activity [2]: 5.5%

inhibition [1]: 42.5%
Molecule: Cc1nc(NC(=O)c2ccccc2)sc1C(=O)/C=C/c1cccc(Br)c1
Activity [2]: 5.7%

inhibition [1]: 71.9%
Molecule: Cc1nc(NC(=O)c2ccccc2)sc1C(=O)/C=C/c1cccs1
Activity [2]: 2.2%

inhibition [1]: 65.3%
Molecule: Cc1nc(NC(=O)c2ccc(F)cc2)sc1C(=O)/C=C/c1ccco1
Activity [2]: 8.2%

inhibition [1]: 48.8%
Molecule: Cc1nc(NC(=O)c2ccc([N+](=O)[O-])cc2)sc1C(=O)/C=C/c1ccc(Cl)cc1
Activity [2]: 2.4%

inhibition [1]: 58.8%
Molecule: COc1ccc(/C=C/C(=O)c2sc(NC(=O)c3ccccc3)nc2C)cc1
Activity [2]: 7.9%

inhibition [1]: 70.2%
Molecule: COc1ccc(/C=C/C(=O)c2sc(NC(=O)c3ccccc3)nc2C)cc1OC
Activity [2]: 6.4%

inhibition [1]: 52.3%
Molecule: Cc1nc(NC(=O)c2ccccc2)sc1C(=O)/C=C/c1ccc(Br)cc1
Activity [2]: 2.4%
